The results in this text go back to US8697705B2, “Isoindolinone derivatives” (Hoffmann-La Roche Inc., priority 2011, dated 2014).

Experiment [1] addresses T1, Recombinant human liver GK1 (GST-GK) (Homo sapiens, UniProt P35557).
T1 construct: made in house; host or cells: E. coli
T1 sequence (P35557 1-466 isoform P35557-2): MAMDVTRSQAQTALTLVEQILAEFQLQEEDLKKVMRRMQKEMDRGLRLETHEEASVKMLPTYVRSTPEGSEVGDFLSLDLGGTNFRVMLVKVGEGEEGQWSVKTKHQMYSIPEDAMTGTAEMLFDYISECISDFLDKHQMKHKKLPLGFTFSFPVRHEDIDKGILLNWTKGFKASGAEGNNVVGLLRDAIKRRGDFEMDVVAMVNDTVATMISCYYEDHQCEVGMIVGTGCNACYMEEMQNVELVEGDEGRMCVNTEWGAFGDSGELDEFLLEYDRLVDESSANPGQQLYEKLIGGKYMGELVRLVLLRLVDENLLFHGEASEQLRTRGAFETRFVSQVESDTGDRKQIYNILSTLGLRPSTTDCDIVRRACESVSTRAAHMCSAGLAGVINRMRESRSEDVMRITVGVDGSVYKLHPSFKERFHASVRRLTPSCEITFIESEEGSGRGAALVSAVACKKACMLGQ
Briefly: Glucokinase in vitro assay (G6PDH-coupled, NADH generation, OD340). It is filed as biochemical. The settings on record: 30° C., 5 mM D-glucose, 10% dimethylsulfoxide. How it is done: Glucokinase In Vitro Assay Protocol:
Glucokinase (GK) was assayed by coupling the production of glucose-6-phosphate to the generation of NADH with glucose-6-phosphate dehydrogenase (G6PDH, 0.75-1 kunits/mg; Boehringer Mannheim, Indianapolis, Ind.) from Leuconostoc mesenteroides as the coupling enzyme (Scheme 2).
Recombinant human liver GK1 was expressed in E. coli as a glutathione S-transferase fusion protein (GST-GK) and was purified by chromatography over a glutathione-Sepharose 4B affinity column using the procedure provided by the manufacturer (Amersham Pharmacia Biotech, Piscataway, N.J.).
The assay was conducted at 30° C. in a flat bottom 96-well tissue culture plate from Costar (Cambridge, Mass.) with a final incubation volume of 120 μL. The incubation reaction contained the following: 25 mM Hepes buffer (pH 7.1), 25 mM KCl, 5 mM D-glucose, 1 mM ATP, 1.8 mM NAD, 2 mM MgCl2, 1 μM sorbitol-6-phosphate, 1 mM dithiothreitol, test drug or 10% dimethylsulfoxide, ˜7 units/ml G6PDH, and GK (see below). All organic reagents were >98% pure and were from Boehringer Mannheim with the exceptions of D-glucose and Hepes which were from Sigma Chemical Co, St Louis, Mo. Test compounds were dissolved in dimethylsulfoxide and were added to the incubation reaction minus GST-GK in a volume of 12 μL to yield a final dimethylsulfoxide concentration of 10%. This mix was pre-incubated in the temperature controlled chamber of a SPECTRAmax 250 microplate spectrophotometer (Molecular Devices Corporation, Sunnyvale, Calif.) for 10 minutes to allow temperature equilibrium and then the reaction was started by the addition of 20 μL GST-GK.
After addition of enzyme, the increase in optical density (OD) at 340 nm was monitored spectrophotometrically to determine the rate of change (OD340 per min). The GK activity (OD340/min) in control wells (10% dimethylsulfoxide minus GK activators) was compared with the activity in wells containing test GK activators, and the concentration of activator that produced a 50% increase in the activity of GK, i.e., the SC1.5, was calculated.

The next experiment concerns C57BL/6J mice. The experiment can be described thus: Glucokinase activator in vivo screen: blood glucose lowering after oral gavage in mice. The settings on record: Mus musculus; vs. control at 2 hours post 25 mg/kg oral dose, C57B6 mice; read-out: % gluc lowering @ 2 H. As for the experimental part: Glucokinase Activator In Vivo Screen Protocol in Lean Mice:
Lean C57BL/6J mice were orally dosed via gavage with Glucokinase (GK) activator following a two hour fasting period. Blood glucose determinations were made at various (e.g. 0, 1, 2, 4 and 8 hours post-oral gavage) times during the study.
C57Bl/6J mice were obtained from Jackson Laboratory (Bar Harbor, Me.) and were maintained in a light-dark cycle with lights on from 0600-1800 hr. For studies in lean mice, the mice were received at age ten weeks and given ad libitum access to control diet (LabDiet 5001 chow, PMI Nutrition, Brentwood, Mo.), and were at least age 11 weeks at the time of study. For studies in the DIO model, the mice were received at age five weeks and given ad libitum access to Bio-Sery F3282 High Fat Diet (Frenchtown, N.J.), and were at least age 16 weeks at the time of study. The experiments were conducted during the light phase of the light-dark cycle. Mice (n=6) are weighed and fasted for a two hour period prior to oral treatment. GK activators are formulated in Gelucire vehicle (Ethanol:Gelucire44/14:PEG400q.s. 4:66:30 v/w/v). For studies in lean mice, the mice were dosed orally with 5.0 μL per gram of body weight (i.e. 5 ml/kg×10.0 mg/ml formulation to equal a 50 mg/kg dose). For studies in DIO mice, the mice were dosed orally with 5.0 μL per gram of body weight (i.e. 5.0 ml/kg×5 mg/ml formulation to equal a 25 mg/kg dose). Immediately prior to dosing, a pre-dose (time zero) blood glucose reading was acquired by snipping off a small portion of the animal's tail and collecting 15 μL blood into a heparinized capillary tube for analysis. Following GK activator administration, additional blood glucose readings were taken at various time points post dose from the same tail wound. Results were interpreted by comparing the mean blood glucose values of vehicle treated mice with GK activator treated mice over the study period.
Table 2 below provides data for % glucose lowering of a representative number of compounds of the present invention vs. control at 2 hours post 25 or 50 mg/kg dose in C57B6 mice: […]

With `Cn1ccc(NC(=O)[C@H](CC2CCCC2)N2Cc3c(cccc3C(F)(F)F)C2=O)n1` [Example 1, (S)-3-Cyclopentyl-N-(1-methyl-1H-pyrazol-3-yl)-2-(1-oxo-4-trifluoromethyl-1,3-dihydro-isoindol-2-yl)-propionamide], in experiment [1], the “SC1.5 (concentration of activator that produced a 50% increase in the activity of GK)” value stood at 0.187 µM. The change in vivo at 25 mg/kg in the experiment with C57BL/6J mice was -39.8%.
In the same order, the values of `O=C(Nc1ccn(CCO)n1)[C@H](CC1CCCC1)N1Cc2c(cccc2C(F)(F)F)C1=O` [Example 2, (S)-3-Cyclopentyl-N-[1-(2-hydroxy-ethyl)-1H-pyrazol-3-yl]-2-(1-oxo-4-trifluoromethyl-1,3-dihydro-isoindol-2-yl)-propionamide] are 0.186 µM and -38.8%.
Consider `CC(C)(C)OC(=O)Cn1ccc(NC(=O)[C@H](CC2CCCC2)N2Cc3c(cccc3C(F)(F)F)C2=O)n1` [Example 3, {3-[(S)-3-Cyclopentyl-2-(1-oxo-4-trifluoromethyl-1,3-dihydro-isoindol-2-yl)-propionylamino]-pyrazol-1-yl}-acetic acid tert-butyl ester], for which the “SC1.5 (concentration of activator that produced a 50% increase in the activity of GK)” value in experiment [1] was found to be 0.244 µM.
Still for that read-out and setting: in the case of `O=C(O)Cn1ccc(NC(=O)[C@H](CC2CCCC2)N2Cc3c(cccc3C(F)(F)F)C2=O)n1` [Example 4, {3-[(S)-3-Cyclopentyl-2-(1-oxo-4-trifluoromethyl-1,3-dihydro-isoindol-2-yl)-propionylamino]-pyrazol-1-yl}-acetic acid] it was 0.439 µM.
Take `O=C(Nc1ccn(C[C@@H](O)CO)n1)[C@H](CC1CCCC1)N1Cc2c(cccc2C(F)(F)F)C1=O` [Example 5, (S)-3-Cyclopentyl-N-[1-((R)-2,3-dihydroxy-propyl)-1H-pyrazol-3-yl]-2-(1-oxo-4-trifluoromethyl-1,3-dihydro-isoindol-2-yl)-propionamide]: in experiment [1], the “SC1.5 (concentration of activator that produced a 50% increase in the activity of GK)” value came to 0.074 µM. Besides, in the experiment on C57BL/6J mice, the change in vivo at 25 mg/kg is -50.1%.
Consider `COCCn1ccc(NC(=O)[C@H](CC2CCCCC2)N2Cc3ccccc3C2=O)n1` [Example 8, (S)-3-Cyclohexyl-N-[1-(2-methoxy-ethyl)-1H-pyrazol-3-yl]-2-(1-oxo-1,3-dihydro-isoindol-2-yl)-propionamide], for which the “SC1.5 (concentration of activator that produced a 50% increase in the activity of GK)” value in experiment [1] amounted to 3.526 µM.
Same read-out and setting: in the case of `COCCn1ccc(NC(=O)[C@H](CC2CCCC2)N2Cc3ccccc3C2=O)n1` [Example 9, (S)-3-Cyclopentyl-N-[1-(2-methoxy-ethyl)-1H-pyrazol-3-yl]-2-(1-oxo-1,3-dihydro-isoindol-2-yl)-propionamide] it was 1.6 µM; in that of `COC(C)(C)Cn1ccc(NC(=O)[C@H](CC2CC2)N2Cc3ccccc3C2=O)n1` [Example 10, (S)-3-Cyclopropyl-N-[1-(2-methoxy-2-methyl-propyl)-1H-pyrazol-3-yl]-2-(1-oxo-1,3-dihydro-isoindol-2-yl)-propionamide], 20.625 µM.
The same measure, in the same setting: in the case of `CC(C)OCCn1ccc(NC(=O)[C@H](CC2CCCC2)N2Cc3ccccc3C2=O)n1` [Example 11, (S)-3-Cyclopentyl-N-[1-(2-isopropoxy-ethyl)-1H-pyrazol-3-yl]-2-(1-oxo-1,3-dihydro-isoindol-2-yl)-propionamide] it was 2.091 µM; in that of `O=C(Nc1ccn(CCCO)n1)[C@H](CC1CCCC1)N1Cc2ccccc2C1=O` [Example 12, (S)-3-Cyclopentyl-N-[1-(3-hydroxy-propyl)-1H-pyrazol-3-yl]-2-(1-oxo-1,3-dihydro-isoindol-2-yl)-propionamide], 1.857 µM; in that of `COC(C)(C)Cn1ccc(NC(=O)[C@H](CC2CCCC2)N2Cc3ccccc3C2=O)n1` [Example 14, (S)-3-Cyclopentyl-N-[1-(2-methoxy-2-methyl-propyl)-1H-pyrazol-3-yl]-2-(1-oxo-1,3-dihydro-isoindol-2-yl)-propionamide], 1.242 µM.
As for `O=C(Nc1cnc(Br)cn1)[C@H](CC1CCCC1)N1Cc2c(cccc2C(F)(F)F)C1=O` [Example 16, (S)—N-(5-Bromo-pyrazin-2-yl)-3-cyclopentyl-2-(1-oxo-4-trifluoromethyl-1,3-dihydro-isoindol-2-yl)-propionamide], the “SC1.5 (concentration of activator that produced a 50% increase in the activity of GK)” value in experiment [1] was determined as 0.062 µM.
Same read-out and setting: in the case of `CC(C)(C)OC(=O)CCn1ccc(NC(=O)[C@H](CC2CCCC2)N2Cc3c(cccc3C(F)(F)F)C2=O)n1` [Example 19, 3-{3-[(S)-3-Cyclopentyl-2-(1-oxo-4-trifluoromethyl-1,3-dihydro-isoindol-2-yl)-propionylamino]-pyrazol-1-yl}-propionic acid tert-butyl ester] it was 0.334 µM.
On to `O=C(O)CCn1ccc(NC(=O)[C@H](CC2CCCC2)N2Cc3c(cccc3C(F)(F)F)C2=O)n1` [Example 20, 3-[3-[(S)-3-Cyclopentyl-2-(1-oxo-4-trifluoromethyl-1,3-dihydro-isoindol-2-yl)-propionylamino]-pyrazol-1-yl]-propionic acid], for which the “SC1.5 (concentration of activator that produced a 50% increase in the activity of GK)” value in experiment [1] came out at 0.457 µM.
As for `CSCC[C@@H](C(=O)Nc1cnc([C@H](O)CO)cn1)N1Cc2c(cccc2C(F)(F)F)C1=O` [Example 22, (S)—N-[5-((S)-1,2-Dihydroxy-ethyl)-pyrazin-2-yl]-4-methylsulfanyl-2-(1-oxo-4-trifluoromethyl-1,3-dihydro-isoindol-2-yl)-butyramide], the “SC1.5 (concentration of activator that produced a 50% increase in the activity of GK)” value in experiment [1] was found to be 14.914 µM.
Same read-out and setting: in the case of `CC(C)C[C@@H](C(=O)Nc1cnccn1)N1Cc2c(cccc2C(F)(F)F)C1=O` [Example 23, (S)-4-Methyl-2-(1-oxo-4-trifluoromethyl-1,3-dihydro-isoindol-2-yl)-pentanoic acid pyrazin-2-ylamide] it was 1.422 µM; in that of `CC(C)C[C@@H](C(=O)Nc1cnc([C@H](O)CO)cn1)N1Cc2c(cccc2C(F)(F)F)C1=O` [Example 24, (S)-4-Methyl-2-(1-oxo-4-trifluoromethyl-1,3-dihydro-isoindol-2-yl)-pentanoic acid [5-((S)-1,2-dihydroxy-ethyl)-pyrazin-2-yl]-amide], 2.966 µM.
